Source: patent publication US10131634B2, “Method of treating pain” (Poseida Therapeutics, Inc., priority 2011, dated 2018)

Experiments:
wild type rats [1] = test: Pain related behaviours after colon mustard (MO) infusion in wild type rats; assay type: in vivo, rat
wild type rats [2] = test: Side effects in wild type rats dosed with compound; assay type: in vivo, rat
Procedure: The quinoline structure Formula 1a is tested in cells and rats.

| Compound | doses to inhibit pain related behaviors induced by intracolonic MO infusion (morphine equivalency) (wild type rats [1]; pre-treatment, s.c., FIGS. 7-9) | cardiotoxicity (wild type rats [2]) | side effects (wild type rats [2]) | inhibition of pain (wild type rats [1]; colon mustard infusion, FIG. 1 (lower body licking)) |
| --- | --- | --- | --- | --- |
| CN1CC[C@]23c4c5ccc(O)c4O[C@H]2[C@@H](O)C=C[C@H]3[C@H]1C5 [morphine, reference compound] | requires much higher doses | – | – | – |
| Cc1cc(N2CCCCC2)nc2ccccc12 [Formula 1a] | – | no cardiotoxicity | no obvious side effects | dose responsive inhibition of pain |
